Key:
[1] = system: biotinylated NIF binding to human neutrophils; experiment: Inhibition of biotinylated NIF binding to neutrophils; conditions: dose dependent
Method: 100 μg of rNIF were labeled with sulfo-NHS-Biotin as described above. rNIF binding to resting or stimulated human neutrophils (pretreated with 10^−6 M f-met-leu-phe, for 15 minutes at 37° C., then washed) was measured. Increasing amounts of biotinylated rNIF in the absence or presence of 100-fold molar excess of unlabeled rNIF were incubated on ice for one hour with 1×10^6 neutrophils in VBSG^++ in a total volume of […]. Cells were then washed and incubated with phycoerythrin-coupled avidin (Sigma Chemical Co.) under similar conditions, washed again, fixed in 1% paraformaldehyde in PBS, and analyzed using FACScan (Becton Dickinson Co., Mountain View, Calif.). Mean channel fluorescence for each sample was then expressed as a function of the amount of biotinylated rNIF used. Background binding of phycoerythrin-streptavidin alone to neutrophils was subtracted (2.8 fluorescent units). Specific binding was obtained by […], and the values plotted according to Scatchard (Ann. N.Y. Acad. Sci. 51:660, 1949). To determine the effect of unlabeled fluid-phase-r11bA or GST on rNIF binding to neutrophils, each was preincubated at varying concentrations with biotinylated rNIF (20 ng/ml, final concentration) for 15 minutes on ice before addition of the mixture to neutrophils. The effect of mAbs on biotinylated NIF binding to neutrophils was assessed by preincubating the neutrophils with 100 μg/ml of each mAb at 4° C. for 15 minutes before addition of biotinylated NIF (20 ng/ml). The incubation then continued for one hour, followed by processing of cells for FACS analysis as described below.

[2] = target: T1, EAiC3b (erythrocytes coated with iC3b) (Homo sapiens, UniProt P01024); experiment: Erythrocyte binding assay, EAiC3b on immobilized proteins or peptides; conditions: 37° C., divalent cations
T1 construct: EAiC3b (erythrocytes coated with iC3b) were generated by treating EAC3b with purified human factors H and I; tissue Sigma Chemical Co. (C5-deficient human serum); host or cells: human serum C3 deposited on IgM-coated erythrocytes
Method: Erythrocytes (E) coated with rabbit anti-E IgM (EA) or C3b (EAC3b) were prepared as described by Dana et al. (J. Immunol. 73:153, 1984). EAiC3b (erythrocytes coated with iC3b) were generated by treating EAC3b with purified human factors H and I, or alternatively prepared from EA using C5-deficient human serum (Sigma Chemical Co., St. Louis, Mo.). EAiC3b cells were washed and stored in isotonic veronal-buffered saline (VBS^2+), pH 7.4, containing 0.15 mM calcium-1 mM magnesium (MgCl2+CaCl2) and 1 mg/ml Soybean Trypsin Inhibitor (STI; Worthington Biochemical Co., Freehold, N.J.) at 1.5×10^8 cells/ml. EA, EAC3b or EAiC3b were labeled with 5-(and-6)-carboxy fluorescein (Molecular Probes, Eugene, Oreg.) as described by Michishita et al. (Cell 72:857, 1993).
Immobilization of recombinant proteins and peptides: Purified recombinant A-domain was added to Immulon-2 96-well microtiter plates (Dynatech) overnight. Wells were then washed once with phosphate-buffered-saline, pH 7.4 without metals, and blocked with 1% BSA at room temperature (RT) for one hour, followed by two washings with buffer A (composed of 60% GVBS:VBS^2+ mixed in a 1:3 ratio; Arnaout et al., in Complement Receptor Type 3 at 602-615, Academic Press, FL) containing 1 mM MnCl2 or MgCl2+CaCl2. All the peptides were stocked at 1 mg/ml in water and similarly adsorbed to Immulon-2 96-well plates. Binding of the anti-CD11b mabs to the coated rA-domain was measured by ELISA and read using a plate reader (Molecular Dynamics).
Erythrocyte binding assays: Fluoresceinated EAiC3b, EAC3b or EA were resuspended to 1.5×10^8/ml in buffer A, and added […] to wells containing immobilized proteins or peptides in a total volume of […]. The plates were then briefly centrifuged to settle the erythrocytes, and allowed to incubate at 37° C. for 15 minutes in a humidified incubator with 5% CO2. For the inhibition studies, E were preincubated with each recombinant protein or pure peptide in the presence of 2% BSA for 5 minutes at RT and added to wells coated with immobilized protein or peptide without washing, unless otherwise indicated. At the end of the binding reactions, wells were washed, examined briefly by light microscopy then solubilized with 1% SDS-0.2 N NaOH. Fluorescence was quantified (excitatory wavelength, 490 nm, emission wavelength, 510 nm) using a SLM 8000 fluorometer (SLM Instruments, Urbana, Ill.). In experiments where the effects of individual divalent cations were measured, Ca^2+ and Mg^2+ were replaced with metal-free buffers or with buffers containing each cation at […], unless otherwise indicated. The effect of temperature was evaluated in the presence of 1 mM MnCl2 at 37° C. and at 4° C.

T1 sequence (P01024 749-1303 limits assumed): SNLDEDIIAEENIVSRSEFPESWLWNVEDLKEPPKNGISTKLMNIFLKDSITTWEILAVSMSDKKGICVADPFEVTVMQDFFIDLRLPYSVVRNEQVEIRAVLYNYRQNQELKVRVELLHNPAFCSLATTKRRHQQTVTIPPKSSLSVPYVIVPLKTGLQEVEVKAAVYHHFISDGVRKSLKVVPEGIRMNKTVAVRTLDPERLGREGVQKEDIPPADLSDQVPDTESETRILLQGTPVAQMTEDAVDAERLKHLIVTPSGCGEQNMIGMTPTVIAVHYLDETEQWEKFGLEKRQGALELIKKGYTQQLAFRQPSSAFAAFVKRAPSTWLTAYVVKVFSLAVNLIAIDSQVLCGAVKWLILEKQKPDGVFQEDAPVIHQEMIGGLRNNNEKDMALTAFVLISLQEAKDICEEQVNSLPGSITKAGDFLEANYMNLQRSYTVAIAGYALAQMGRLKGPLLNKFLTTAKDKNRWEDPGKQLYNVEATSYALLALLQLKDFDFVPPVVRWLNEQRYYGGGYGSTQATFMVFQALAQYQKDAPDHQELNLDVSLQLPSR
T1 sequence (P01024 23-667 partner limits assumed): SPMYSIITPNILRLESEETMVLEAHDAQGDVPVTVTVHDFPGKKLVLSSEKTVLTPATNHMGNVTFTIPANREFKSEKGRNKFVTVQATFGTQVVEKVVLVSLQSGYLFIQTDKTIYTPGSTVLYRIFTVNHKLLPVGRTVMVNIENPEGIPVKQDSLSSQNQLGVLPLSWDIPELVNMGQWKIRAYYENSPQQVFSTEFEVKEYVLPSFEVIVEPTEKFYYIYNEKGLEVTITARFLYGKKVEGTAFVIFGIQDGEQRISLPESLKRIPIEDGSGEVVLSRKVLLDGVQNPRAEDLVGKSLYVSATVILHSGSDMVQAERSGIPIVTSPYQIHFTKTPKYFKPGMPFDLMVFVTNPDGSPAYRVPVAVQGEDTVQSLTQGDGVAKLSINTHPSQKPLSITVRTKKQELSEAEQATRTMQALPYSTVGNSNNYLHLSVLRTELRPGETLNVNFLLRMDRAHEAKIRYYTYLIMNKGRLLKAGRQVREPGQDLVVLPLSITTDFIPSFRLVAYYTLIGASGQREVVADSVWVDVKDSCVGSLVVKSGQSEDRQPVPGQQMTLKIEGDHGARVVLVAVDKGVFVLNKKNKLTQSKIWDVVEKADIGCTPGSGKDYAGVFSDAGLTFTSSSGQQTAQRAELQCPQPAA
T1 sequence (P01024 1321-1663 partner limits assumed): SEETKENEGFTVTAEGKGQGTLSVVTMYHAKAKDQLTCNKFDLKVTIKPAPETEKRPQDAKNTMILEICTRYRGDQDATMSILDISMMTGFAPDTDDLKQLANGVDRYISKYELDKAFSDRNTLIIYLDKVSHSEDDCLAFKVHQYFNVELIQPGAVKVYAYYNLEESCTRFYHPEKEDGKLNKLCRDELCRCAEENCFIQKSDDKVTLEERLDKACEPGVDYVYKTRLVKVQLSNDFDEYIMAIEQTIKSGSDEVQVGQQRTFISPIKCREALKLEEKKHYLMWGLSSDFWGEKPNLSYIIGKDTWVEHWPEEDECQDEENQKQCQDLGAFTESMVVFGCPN

Substance: GST: glutathione-S-transferase, fusion partner of r11bA, used as control [reference compound]
- effect of fluid-phase protein on biotinylated rNIF binding to human neutrophils [1]: not
- direct binding of EAiC3b to immobilized protein or peptide [2]: did not bind

From patent US20050227296A1, “Method for indentifying integrin antagonists” (The General Hospital Corporation, a Massachusetts …, priority 1988, published 2005)
